# Laboratory results from patent US8486447B2, “Pharmaceutical formulation” (Novartis AG, priority 2003, dated 2013).
# Test: HPLC analysis of thermal degradation of drug substance and melt-processed solid dispersions
# Assay type: physicochemical
# Settings: for HPLC analysis (thermal degradation): Table 1
structure (smiles),measurement,setting,value
"CN(Cc1ccccc1)C(=O)[C@H](Cc1ccc2ccccc2c1)N(C)C(=O)[C@@H]1CCCN1c1nc(=O)c2ccccc2[nH]1 [TKA731, (S)-1-(4-Oxo-1,4-dihydro-quinazolin-2-yl)-pyrrolidine-2-carboxylic acid[(S)-1-(benzyl-methyl-carbamoyl)-2-naphthalen-2-yl-ethyl]-methyl-amide]",HPLC analysis (thermal degradation),"drug load 100%, PVPK-30 0%, amorphous TKA731",No degradation
same,HPLC analysis (thermal degradation),"solid dispersion, drug load 20%, PVPK-30 80%",No degradation
same,HPLC analysis (thermal degradation),"solid dispersion, drug load 30%, PVPK-30 70%",No degradation
same,HPLC analysis (thermal degradation),"solid dispersion, drug load 40%, PVPK-30 60%",No degradation
same,HPLC analysis (degradation),"Table 2, starting from amorphous drug, Tg 94.5 °C",No
same,HPLC analysis (degradation),"Table 2, starting from crystalline drug, melting point 175 °C",20%
same,HPLC analysis (degradation),"Table 3, amorphous drug load 20%, PVPK-30 70%, sorbitol 10%, processing temperature 170 °C",No
same,HPLC analysis (degradation),"Table 3, amorphous drug load 30%, PVPK-30 65%, sorbitol 5%, processing temperature 170 °C",No
same,HPLC analysis (degradation),"Table 3, amorphous drug load 40%, PVPK-30 60%, sorbitol 0%, processing temperature 170 °C",No
